# Test results taken from patent US20160152942A1, “METHOD FOR ISOLATING HIGHLY FURFURAL RESISTANT STRAIN AND STRAIN ISOLATED BY THE METHOD” (priority 2014, published 2016).
# Read-outs that look alike come from different tables or passages of the source.
# Tests used:
# Type in all cases: cell-based
# [1] = test system: E. coli; assay: Inhibition of growth by furfural, IC50 (Test Example 2); details: Escherichia coli; against E. coli; read-out: half maximal inhibitory concentration (IC50) of furfural
# Description: (§1) The term “IC50” refers to the concentration of the toxic substance required to inhibit the maximum growth of the microorganism by 50%.
# (§2) The half maximal inhibitory concentration (IC50) values of furfural were calculated. As a result, the IC50 value against Enterobacter cloacae strain GGT036 [Accession No. KCTC 12672BP]
# [2] = test system: Enterobacter cloacae strain GGT036 [Accession No. KCTC 12672BP]; assay: Inhibition of growth by furfural (Test Example 2); details: for IC50: LB medium with 1% glucose, 30 °C
# Description: as §1
# LB media were supplemented with 1% glucose as a carbon source to prepare culture media. To the culture media was added furfural at different concentrations of 20 mM, 40 mM, and 60 mM. The growth rates of the strain in the furfural-containing media were compared with the growth rate of the strain in the furfural-free medium.
# After 50 mL of each culture medium was added to an Erlenmeyer flask, Enterobacter cloacae strain GGT036 [Accession No. KCTC 12672BP] was inoculated at an initial OD600 of 1, followed by culture at 30 ° C.
# as §2
# [3] = test system: E. coli (Comparative Example 1); assay: Resistance to furfural, growth by turbidity (Test Example 1); details: 30 mM furfural, LB with 1% glucose, 30 °C, 24 h
# Description: (§3) The degrees of growth of Enterobacter cloacae strain GGT036 [Accession No. KCTC 12672BP], E. coli (Comparative Example 1), and Corynebacterium glutamicum (Comparative Example 2) in media containing 30 mM furfural were compared by turbidity measurements to identify the resistance of Enterobacter cloacae strain GGT036 to furfural.
# (§4) The media used were LB media supplemented with 1% glucose. An observation was made to determine the dependence of the growth of the strains in the media containing 30 mM furfural (FIG. 2B) and the furfural-free media (FIG. 2A) on the presence or absence of furfural.
# (§5) After 7 mL of each medium was added to a glass tube (24 mm), the colonies obtained in Example 1 were inoculated into the medium, followed by culture at 30° C. for 24 h.
# [4] = test system: Corynebacterium glutamicum (Comparative Example 2); assay: as above; details: 30 mM furfural, LB with 1% glucose, 30 °C, 24 h
# Description: as §3, §4, §5
# [5] = test system: Enterobacter cloacae strain GGT036 [Accession No. KCTC 12672BP]; assay: as above; details: 30 mM furfural, LB with 1% glucose, 30 °C, 24 h
# Description: as §3, §4, §5
# [6] = test system: Corynebacterium glutamicum; assay: Inhibition of growth by furfural, IC50 (Test Example 2); details: against Corynebacterium glutamicum; read-out: half maximal inhibitory concentration (IC50) of furfural
structure (smiles),measurement,setting,value
O=Cc1ccco1 [furfural],IC50,[1],24.9 mM
same,OD value of culture,"[2]; 60 mM furfural, after 30 h of culturing, initial OD600 of 1",≤ 2
same,IC50,"[2]; Enterobacter cloacae, read-out: half maximal inhibitory concentration (IC50) of furfural, against Enterobacter cloacae strain GGT036",45 to 55 mM
same,growth rate of strain,[2]; furfural concentration increasing from 0 mM to 40 mM,slightly retarded
same,IC50,"[2]; read-out: half maximal inhibitory concentration (IC50) of furfural, against Enterobacter cloacae strain GGT036",47.7 mM
same,growth of strain in furfural-containing medium,[3],not grown
same,growth of strain in furfural-containing medium,[4],not grown
same,growth of strain in furfural-containing medium,[5],cell growth was observed
same,IC50,[6],10 mM
